Measured values reported in the METLIN SMRT retention time set (Domingo-Almenara et al. 2019).

Assay: gradient 5% acetonitrile 3 min, to 50% in 2 min, to 85% in 15 min, held 3 min, 100 µL/min
Settings: column: Zorbax Extend-C18 2.1 x 50 mm; eluents: water / acetonitrile, 0.1% formic acid
In short: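 Each retention time is based on an adduct peak selected computationally and verified by manual inspection. Measurements used HPLC–quadrupole time-of-flight mass spectrometry in positive and negative ionization mode on mixtures of ~100 pure standards. Chromatography ran on a Zorbax Extend-C18 column (2.1 × 50 mm, 1.8 μm) at 100 μL/min with water and acetonitrile, each containing 0.1% formic acid, and dead and dwell volumes of 40 μL and 900 μL.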

Compound | RP-LC retention time [s]
CC1(CNS(=O)(=O)c2ccc(F)c(Cl)c2)CCOCC1 | 861
Cc1cc(C)cc(Nc2c(-c3ccc(O)cc3)nc3ncccn23)c1 | 705
CN(CC1CCOC1)C(=O)Cc1ccc(Cl)cc1 (stereo not given) | 741
CC(C)Nc1nc(=O)[nH]c2ccccc12 | 550
COC(=O)c1ncn2c1C(=O)N(Cc1ccccc1F)C(C)(C(=O)NC1CCCC1)C2 (stereo not given) | 737
COc1ccc(C2(C(=O)N3CCCC(c4nc(C5CCOCC5)no4)C3)CC2)cc1 (stereo not given) | 822
Nc1ccccc1Sc1cc(Cl)nnc1Cl | 983
Cn1cccc1C(=O)C(=O)Nc1ccc(C#N)cc1 | 872
Cc1ccc(Cn2nc3c(S(=O)(=O)N4CCN(c5ccc(F)cc5)CC4)cccn3c2=O)cc1 | 1020
CC(C)c1cc(C(=O)Nc2cccc(F)c2)nc2ccnn12 | 1140
COc1cccc(C(=O)N(CN2CCCC2=O)c2cccc(C(F)(F)F)c2)c1 | 757
Cn1ncc2c(Nc3ccccc3Cl)nc(Cl)nc21 | 891
CC(C)CN1C(=O)CCc2cc(NS(=O)(=O)c3cccc(Cl)c3)ccc21 | 932
CCCc1cc(C2CCCN2C(=O)Nc2cccc(C)c2)no1 (stereo not given) | 945
O=C(NCC1CC1)C1CCN(c2ncnc3c2oc2ccccc23)CC1 | 678
COCC(=O)N1CC2CN(S(=O)(=O)c3cccc(F)c3)CC(C1)O2 | 660
O=C(c1csc(S(=O)(=O)N2CCC(C(=O)N3CCc4ccccc43)CC2)c1)N1CCOCC1 | 779
CC(=O)c1ccc(NS(=O)(=O)c2ccc(-c3c(C)noc3C)cc2)cc1 | 813
COCCC1(NS(C)(=O)=O)CCN(C(=O)C2(c3ccc(OC)cc3)CC2)CC1 | 710
Cn1cccc1C(=O)C(=O)Nc1ccc(Cl)c(C(F)(F)F)c1 | 1130

Compound | RP-LC retention time [s]
COc1cc(NC(=O)NC2CCN(c3cc(N4CCOCC4)cnn3)C2)cc(OC)c1 (stereo not given) | 629
Cc1nc(-c2ccc3c(c2)n(CC(=O)NC2CCCCC2)c(=O)n3C(C)C)no1 | 857
O=C1CC(c2ccc3c(c2)OCO3)c2scc(S(=O)(=O)c3ccccc3)c2N1 (stereo not given) | 905
O=C(c1ccco1)N1CCN(c2ccc(-c3noc(C4CCC4)n3)cc2)CC1 | 990
Cc1cccc(-c2nc(-c3cccc(-c4ccn[nH]4)c3)no2)c1 | 1100
CN(C)C(=O)c1csc(S(=O)(=O)N2CCC(C(=O)Nc3ccccc3)CC2)c1 | 752
O=S(=O)(c1ccc(Cl)cc1)c1ccc(N2CCN(c3ncccn3)CC2)nn1 | 884
CCCCNC(=O)C(=O)NCC(c1ccc2c(c1)OCO2)N1CCOCC1 (stereo not given) | 628
COc1ccc(C(=O)N2CCC3(CC2)NC(=O)c2cc(Cl)ccc2N3C)cc1 | 768
Cc1cccc2c(=O)n(C3CCN(S(=O)(=O)c4ccc(CC(C)C)cc4)CC3)cnc12 | 1230
CC1(O)CCOC2(CCN(C(=O)c3ccc(Br)o3)CC2)C1 (stereo not given) | 690
CN1C(=O)C2CCCCN2c2ccc(C(=O)NCCCN3CCCC3)cc21 (stereo not given) | 586
CCCn1cc(C(=O)Nc2ccc(N3CCOCC3)cc2)c2cccnc21 | 895
COc1ccc(C)cc1NC(=O)C(C)C1CCN(C(=O)Nc2ccc(Cl)cc2)CC1 (stereo not given) | 986
O=C(Cn1c(=O)c2cccn2c2ccc(F)cc21)NCCN1CCOCC1 | 592
CS(=O)(=O)NCC1CCC(C(=O)Nc2ccc3c(c2)Cc2ccccc2-3)CC1 (stereo not given) | 840
CC(C)c1csc(-c2csc(S(=O)(=O)Nc3ccc(F)c(F)c3)c2)n1 | 1120
Cc1nc(Nc2ncc(C(=O)Nc3c(C)cccc3Cl)s2)cc(N2CCN(CCO)CC2)n1 | 682
O=C(NCc1ccc(F)cc1Cl)C1CCCN(c2ncnc3nn(-c4ccc(F)cc4)cc23)C1 (stereo not given) | 723
Cc1ccc(-c2nc3ncccn3c2Nc2ccc(Cl)cc2)cc1 | 827

Compound | RP-LC retention time [s]
Cc1sc(-c2nc(C(C)C)cs2)cc1S(=O)(=O)N1CCCCC1 | 1310
COc1ccc(N2CCN(C(=O)CC3CCN(C(=O)c4[nH]c(C)cc4C)CC3)CC2)cc1 | 739
COc1ccc(C)cc1NC(=O)N1CCC2(CC1)NC(=O)c1ccc(F)cc1N2C | 777
CNC(=O)C1CCCN(c2nc3ncn(CC(=O)N4CCc5ccccc5C4)c(=O)c3s2)C1 (stereo not given) | 666
CCSc1nnc(-c2nn(C)c3c2CN(S(=O)(=O)c2ccc(OC)cc2)CC3)n1CC | 905
Cc1cc(=O)n(CC(=O)Nc2ccccc2F)c(N2CCOCC2)n1 | 643
Cc1ccc(NC(=O)Nc2ccc3nc(N4CCN(C)CC4)cc(C)c3c2)cc1Cl | 640
Cc1ccc(-c2nc3n(CC(=O)NC(C)C)c4c(c(=O)n3n2)CCC4)cc1 | 733
CCOC(=O)c1c(C)c(C(=O)C(C)N(CC)C(=O)c2ccc(Cl)cc2)c(C)n1C (stereo not given) | 876
CCCCOc1ccc(NC(=O)NCCN2CCN(S(C)(=O)=O)CC2)cc1 | 600
O=C(NCC1CCOCC1)Nc1cccc(Br)c1 | 749
CCCN(C)c1nccn2c(=O)n(CC(=O)Nc3cccc(C(F)(F)F)c3)nc12 | 753
Cc1cccc(CCNC(=O)C2CCCN(c3ncnc4c3nc3n4CCCCC3)C2)c1 (stereo not given) | 819
Cc1cc(Cl)ccc1S(=O)(=O)N1CCC(OCc2noc(C3CCCO3)n2)CC1 (stereo not given) | 1030
CCCNC(=O)Nc1ccc(C)cc1C | 827
CCN(CC)CCCNC(=O)C1CCN(c2nc3cccnc3s2)CC1 | 570
Cn1cccc1C(=O)N1CC[C@@H]2CN(S(C)(=O)=O)[C@@H]2C1 | 624
Cc1cc(C)cc(OCCNC(=O)Nc2cc(F)ccc2F)c1 | 992

Continued, values first:

RP-LC retention time [s] | Compound
747 | COc1ncc(C(=O)NCc2ccc(SC)cc2)cn1
902 | CCOC(=O)COc1cc(-c2ccc(C)cc2)nc2ccc(NC(=O)COc3ccccc3)cc12
995 | CCc1ccc(NC(=O)CSc2nccc(N3CCN(c4cc(C)ccc4C)CC3)n2)cc1
828 | O=C(NC1CCN(c2cc(-c3cccs3)[nH]n2)C1)c1cccc(OC(F)(F)F)c1 (stereo not given)
853 | O=C(Cc1cccs1)N1CCCC1(CO)Cc1ccccc1 (stereo not given)
769 | COc1cccc(CNC(=O)CN2CCN(Cc3ccc(F)cc3)C2=O)c1
834 | COC(=O)c1cccc(Nc2c(-c3ccccc3)nc3cnccn23)c1
853 | O=C(Cc1ccccc1Br)N1CCN(c2cc(-c3ccccc3)[nH]n2)CC1
910 | CCOc1ccc(-c2csc(Nc3ccccn3)n2)cc1
908 | CCCn1ccc2sc(C)c(C(=O)NCc3ccccc3F)c2c1=O
1080 | Cc1cc(C)cc(Nc2nc(C)cc3nn(CC(=O)NCc4ccccc4)c(=O)n23)c1
795 | COc1cc(Cl)ccc1C(=O)NC1CCN(c2cc(-c3cccs3)[nH]n2)C1 (stereo not given)
805 | COc1ccc(NC(=O)CCc2cccc3[nH]ccc23)c(C)c1
805 | COc1ccc(-c2csc(CN3CCN(C(=O)c4c(F)cccc4Cl)CC3)n2)cc1
769 | COCCCNC(=O)c1cc(-c2ccccc2)nc2n[nH]c(-c3ccccc3)c12
993 | CN(CCc1noc(-c2ccc(Cl)cc2)n1)C(=O)COc1ccc(F)cc1

RP-LC retention time [s] | Compound
1030 | CCN1C=C(C(=O)OCc2ccccc2C)C(C)=NS1(=O)=O
876 | COCCCn1c(=O)c2ccccc2n(Cc2nc(-c3ccc(OC)c(OC)c3)no2)c1=O
966 | O=C(CSc1ccc(NC(=O)c2ccco2)cc1)Nc1nc(-c2ccccc2)cs1
1120 | COc1ccc(-c2ccc(=O)n(Cc3nc(-c4ccc(OC(C)C)cc4)no3)n2)cc1
560 | O=C(c1ccc(CS(=O)c2ccccc2)o1)N1CCN(c2ccccn2)CC1 (stereo not given)
670 | COc1ccc(N2CCN(C(c3cccs3)C(C)NC(=O)C(=O)N3CCCC3)CC2)cc1 (stereo not given)
802 | COc1ccccc1CCNC(=O)CSc1ccc(-c2cccs2)nn1
611 | CN(C)CCNC(=O)c1cccc(Nc2c(-c3ccc(Cl)cc3)nc3cnccn23)c1
988 | COc1ccc(Cl)cc1NC(=O)N1CCc2c(c(COc3ccccc3)nn2C)C1
853 | COCCN1C(=O)c2cc(-c3ccc(OC)cc3)nn2CC1(C)C(=O)NCc1ccccc1OC (stereo not given)
744 | Cc1ccccc1NC(=O)N1CCN(c2ccc(=O)n(-c3ccccc3)n2)CC1
710 | O=C(CNC(=O)c1c[nH]c2ccccc12)NCCC1=CCCCC1
826 | COc1ccc(-c2noc(C3CCCN3C(=O)Nc3ccccc3OC)n2)cc1 (stereo not given)
1090 | Cc1ccc(-c2noc(Cn3cnc4c(cnn4-c4ccccc4)c3=O)n2)cc1
1110 | O=C(NCCc1ccc(Cl)cc1)c1nnc(-c2ccc(S(=O)(=O)N3CCCCC3)cc2)o1
657 | COc1ccc(Cl)cc1C(=O)NCCc1c[nH]c2ccc(C)cc12
